Experimental data reported in PubChem BioAssay AID1259407 (Chemical Carcinogenesis Research Information System (CCRIS), 2018).
The source made the active and inactive calls. The rule behind the calls is not given here.

Tested on: CCRIS mutagenicity, Ames/micronucleus/aberration tests
Experiment: CCRIS mutagenicity studies
[1] = Test System: AMES SALMONELLA TYPHIMURIUM, Strain/Indicator: TA98, Metabolic Activation: NONE, Method: PREINCUBATION
[2] = Test System: AMES SALMONELLA TYPHIMURIUM, Strain/Indicator: TA100, Metabolic Activation: NONE, Method: PREINCUBATION

## C#CCNC(=NCCSCc1nc[nH]c1C)NC#N
[1]
  mutagenic call: inactive; negative
Test System: AMES SALMONELLA TYPHIMURIUM, Strain/Indicator: TA98, Metabolic Activation: RAT, LIVER, S-9, SODIUM PHENOBARBITAL AND BETA-NAPHTHOFLAVONE, Method: PREINCUBATION
  mutagenic call: inactive; negative
[2]
  mutagenic call: inactive; negative
Test System: AMES SALMONELLA TYPHIMURIUM, Strain/Indicator: TA100, Metabolic Activation: RAT, LIVER, S-9, SODIUM PHENOBARBITAL AND BETA-NAPHTHOFLAVONE, Method: PREINCUBATION
  mutagenic call: inactive; negative
Test System: AMES SALMONELLA TYPHIMURIUM, Strain/Indicator: TA1535, Metabolic Activation: NONE, Method: PREINCUBATION
  mutagenic call: inactive; negative
Test System: AMES SALMONELLA TYPHIMURIUM, Strain/Indicator: TA1535, Metabolic Activation: RAT, LIVER, S-9, SODIUM PHENOBARBITAL AND BETA-NAPHTHOFLAVONE, Method: PREINCUBATION
  mutagenic call: inactive; negative
Test System: AMES SALMONELLA TYPHIMURIUM, Strain/Indicator: TA1537, Metabolic Activation: NONE, Method: PREINCUBATION
  mutagenic call: inactive; negative
Test System: AMES SALMONELLA TYPHIMURIUM, Strain/Indicator: TA1537, Metabolic Activation: RAT, LIVER, S-9, SODIUM PHENOBARBITAL AND BETA-NAPHTHOFLAVONE, Method: PREINCUBATION
  mutagenic call: inactive; negative
Test System: AMES SALMONELLA TYPHIMURIUM, Strain/Indicator: TA1538, Metabolic Activation: NONE, Method: PREINCUBATION
  mutagenic call: inactive; negative
Test System: AMES SALMONELLA TYPHIMURIUM, Strain/Indicator: TA1538, Metabolic Activation: RAT, LIVER, S-9, SODIUM PHENOBARBITAL AND BETA-NAPHTHOFLAVONE, Method: PREINCUBATION
  mutagenic call: inactive; negative
Test System: CHINESE HAMSTER V-79, Strain/Indicator: V-79/6-THIOGUANINE, Metabolic Activation: NONE, Method: STANDARD PLATE
  mutagenic call: inactive; negative
Test System: CHINESE HAMSTER V-79, Strain/Indicator: V-79/6-THIOGUANINE, Metabolic Activation: RAT, LIVER, S-9, SODIUM PHENOBARBITAL AND BETA-NAPHTHOFLAVONE, Method: STANDARD PLATE
  mutagenic call: inactive; negative
Test System: CHINESE HAMSTER V-79, Strain/Indicator: V-79/OUABAIN, Metabolic Activation: NONE, Method: STANDARD PLATE
  mutagenic call: inactive; negative
Test System: CHINESE HAMSTER V-79, Strain/Indicator: V-79/OUABAIN, Metabolic Activation: RAT, LIVER, S-9, SODIUM PHENOBARBITAL AND BETA-NAPHTHOFLAVONE, Method: STANDARD PLATE
  mutagenic call: inactive; negative
Test System: E. COLI, Strain/Indicator: WP2 (PKM101), Metabolic Activation: NONE, Method: PREINCUBATION
  mutagenic call: inactive; negative
Test System: E. COLI, Strain/Indicator: WP2 (PKM101), Metabolic Activation: RAT, LIVER, S-9, SODIUM PHENOBARBITAL AND BETA-NAPHTHOFLAVONE, Method: PREINCUBATION
  mutagenic call: inactive; negative
Test System: E. COLI, Strain/Indicator: WP2, Metabolic Activation: NONE, Method: PREINCUBATION
  mutagenic call: inactive; negative
Test System: E. COLI, Strain/Indicator: WP2, Metabolic Activation: RAT, LIVER, S-9, SODIUM PHENOBARBITAL AND BETA-NAPHTHOFLAVONE, Method: PREINCUBATION
  mutagenic call: inactive; negative
Test System: E. COLI, Strain/Indicator: WP2 UVRA (PKM101), Metabolic Activation: NONE, Method: PREINCUBATION
  mutagenic call: inactive; negative
Test System: E. COLI, Strain/Indicator: WP2 UVRA (PKM101), Metabolic Activation: RAT, LIVER, S-9, SODIUM PHENOBARBITAL AND BETA-NAPHTHOFLAVONE, Method: PREINCUBATION
  mutagenic call: inactive; negative
Test System: E. COLI, Strain/Indicator: WP2 UVRA, Metabolic Activation: NONE, Method: PREINCUBATION
  mutagenic call: inactive; negative
Test System: E. COLI, Strain/Indicator: WP2 UVRA, Metabolic Activation: RAT, LIVER, S-9, SODIUM PHENOBARBITAL AND BETA-NAPHTHOFLAVONE, Method: PREINCUBATION
  mutagenic call: inactive; negative

## Clc1cc2c3nc4[n-]c(nc5nc(nc6nc(nc([n-]3)c2c(Cl)c1Cl)-c1c(Cl)c(Cl)c(Cl)c(Cl)c1-6)-c1c(Cl)c(Cl)c(Cl)c(Cl)c1-5)c1c(Cl)c(Cl)c(Cl)c(Cl)c41.[Cu+2]
Test System: AMES SALMONELLA TYPHIMURIUM, Strain/Indicator: TA98, Metabolic Activation: HAMSTER, LIVER, S-9, AROCLOR 1254 (30%), Method: PREINCUBATION
  mutagenic call: active; positive
[1]
  mutagenic call: inactive; negative
Test System: AMES SALMONELLA TYPHIMURIUM, Strain/Indicator: TA98, Metabolic Activation: RAT, LIVER, S-9, AROCLOR 1254 (30%), Method: PREINCUBATION
  mutagenic call: active; positive
Test System: AMES SALMONELLA TYPHIMURIUM, Strain/Indicator: TA100, Metabolic Activation: HAMSTER, LIVER, S-9, AROCLOR 1254 (30%), Method: PREINCUBATION
  mutagenic call: inactive; negative
[2]
  mutagenic call: inactive; negative
Test System: AMES SALMONELLA TYPHIMURIUM, Strain/Indicator: TA100, Metabolic Activation: RAT, LIVER, S-9, AROCLOR 1254 (30%), Method: PREINCUBATION
  mutagenic call: inactive; negative

## O[C@@H]1c2ccccc2-c2ccc3ccccc3c2[C@H]1O
Test System: AMES SALMONELLA TYPHIMURIUM, Strain/Indicator: TA98, Metabolic Activation: NONE, Method: STANDARD PLATE
  mutagenic call: inactive; negative
Test System: AMES SALMONELLA TYPHIMURIUM, Strain/Indicator: TA98, Metabolic Activation: RAT, LIVER, S-9, AROCLOR 1254, Method: STANDARD PLATE
  mutagenic call: inactive; negative
Test System: AMES SALMONELLA TYPHIMURIUM, Strain/Indicator: TA100, Metabolic Activation: NONE, Method: STANDARD PLATE
  mutagenic call: inactive; negative
Test System: AMES SALMONELLA TYPHIMURIUM, Strain/Indicator: TA100, Metabolic Activation: RAT, LIVER, S-9, AROCLOR 1254, Method: STANDARD PLATE
  mutagenic call: inactive; negative

## C=C(C)CN(CC)c1c([N+](=O)[O-])cc(C(F)(F)F)cc1[N+](=O)[O-]
End Point: In vitro chromasomal aberrations, Test System: Chinese hamster ovary (CHO) cells, Metabolic Activation: None
  mutagenic call: inactive; negative
Test System: Ames Salmonella typhimurium, Strain/Indicator: TA98, Metabolic Activation: None, Method: Plate incorporation
  mutagenic call: inactive; negative
Test System: Ames Salmonella typhimurium, Strain/Indicator: TA98, Metabolic Activation: Rat, Liver, S-9, Aroclor, Method: Plate incorporation
  mutagenic call: inactive; negative
Test System: Ames Salmonella typhimurium, Strain/Indicator: TA100, Metabolic Activation: None, Method: Plate incorporation
  mutagenic call: inactive; negative
Test System: Ames Salmonella typhimurium, Strain/Indicator: TA100, Metabolic Activation: Rat, Liver, S-9, Aroclor, Method: Plate incorporation
  mutagenic call: active; positive (weak response)
Test System: Ames Salmonella typhimurium, Strain/Indicator: TA1535, Metabolic Activation: None, Method: Plate incorporation
  mutagenic call: inactive; negative
Test System: Ames Salmonella typhimurium, Strain/Indicator: TA1535, Metabolic Activation: Rat, Liver, S-9, Aroclor, Method: Plate incorporation
  mutagenic call: active; positive (weak response)
Test System: Ames Salmonella typhimurium, Strain/Indicator: TA1537, Metabolic Activation: None, Method: Plate incorporation
  mutagenic call: inactive; negative
Test System: Ames Salmonella typhimurium, Strain/Indicator: TA1537, Metabolic Activation: Rat, Liver, S-9, Aroclor, Method: Plate incorporation
  mutagenic call: inactive; negative
Test System: Ames Salmonella typhimurium, Strain/Indicator: TA1538, Metabolic Activation: None, Method: Plate incorporation
  mutagenic call: inactive; negative
Test System: Ames Salmonella typhimurium, Strain/Indicator: TA1538, Metabolic Activation: Rat, Liver, S-9, Aroclor, Method: Plate incorporation
  mutagenic call: inactive; negative
